According to patent US20230346901A1, “METHODS AND VACCINE COMPOSITIONS TO TREAT CANCERS” (priority 2019, published 2023):
Ends that are not written are not given here.

Tests used:
[1] = test system: normal spleen cells; experiment: Electron microscopy ultrastructural analysis, normal spleen cells; assay type: cell-based, mouse; settings: normal spleen cells exposed to RT53 (data not shown)
Description: Samples were fixed in 3% glutaraldehyde in phosphate buffer, pH 7.4 for 1 hour, washed, post-fixed with 1% osmium tetroxide in 0.1 M phosphate buffer and then gradually dehydrated in 70, 90 and 100% ethanol. After 10 min in a 1:2 mixture of epoxy propane and epoxy resin and 10 min in epon, samples were embedded in epoxy resin and polymerized at 60° C. for 24 h. After polymerisation, ultrathin sections of 90 nm were cut with an ultra-microtome (Reichert ultracut S), stained with uranyl acetate and Reynold's lead and observed with a transmission electron microscope (JEOL 1011). Acquisition was performed with a Gatan Orius 1000 CCD camera.
To test the antileukemic properties of RT53, we first exposed human all-trans retinoic acid (ATRA)-sensitive (NB4) and ATRA-resistant (UF-1) acute promyelocytic leukemia (APL) cells as well as mouse APL spleen blast cells derived from hMRP8-PML-RARA transgenic mice9 to increasing concentrations of RT53.

[2] = Organ toxicity in peptide-treated APL mice; assay type: in vivo, FVB/N mice; settings: either treatment schedule (data not shown)
Description: APL blasts (provided by Drs. M. Bishop and S. Kogan, UCSF, USA) origin from the spleen of mice bearing the human PML-RARA cDNA construct driven by a myeloid linage specific promoter (hMRP8) in the FVB/N inbred strain of mice. For amplification, cells (1×105 or 1×106) were suspended in PBS and transplanted by intravenous (i.v) tail injection (200 uL) into female syngeneic recipient mice (5-6 weeks old). Establishment of leukemia was assessed by a decrease in blood platelet counts approx. 3 weeks after graft. Spleen cells from a primary recipient were collected, washed, re-suspended in PBS and injected (10^4 cells/mouse; 200 uL) into the tail veins of male FVB/N mice (7-8 weeks old) for experiments. For direct treatment experiments, mice were treated daily or every other day (i.p) with normal saline, RT53 or RT39 at 2.4 mg/kg in normal saline starting from day 10 or day 20 for a total of 7 injections.
To explore the in vivo therapeutic potential of RT53 as a treatment of acute leukemia, we used a well-characterized preclinical APL model bearing the human PML-RARA oncogene which mimics human APL, both in its characteristics and its response to conventional therapeutic drugs such as ATRA and arsenic trioxide^9, 10. In this model, 100% of the syngeneic mice (FVB/N) transplanted with 104 primary recipients' spleen blasts developed an APL and succumbed within 30 days (FIG. 1C).

[3] = test system: spleen cells from healthy mice; assay type: cell-based, mouse; settings: up to the highest concentration tested, 20 h
Description: FIG. 1: RT53 treatment increases APL mice survival. (A) The indicated cells were left untreated or exposed to increasing concentrations of RT53 for 20 h. Cell death induced by peptide treatment was measured by lactate dehydrogenase (LDH) release. Data are means±s.e.m. (n=3). (B) APL spleen cells were exposed to 5 μM of RT53 in the presence or absence of 50 μM zVAD-fmk or 50 μM Necrostatin-1 (Nec-1) for 3 h. Necrotic cell death was monitored by lactate dehydrogenase (LDH) release from cells into the culture medium. The obtained values were normalized to those of the maximum LDH released (completely lysed) control. Data are means±s.e.m. (n=3). (C) 104 APL blasts were inoculated intravenously (i.v.) into FVB/N mice at day zero. […] Survival curves were analyzed with the Mantel-Cox test. […] Survival curves were analyzed with the Mantel-Cox test.
Release of lactate dehydrogenase (LDH) and ATP in the culture medium were assessed with the CytoTox 96 Non-Radioactive Cytotoxicity Assay and Enliten ATP Assay, respectively (Promega, Madison, WI, USA). HMGB1 release in the culture medium was assessed with the HMGB1 ELISA kit (IBL International, Hamburg, Germany). […]

[4] = test system: U2OS cells; experiment: Immunogenic cell death markers (HMGB1, ATP release) in U2OS cells; assay type: cell-based
Description: ((A) U2OS cells were left untreated or exposed to increasing concentrations of RT39 for 3 h. Extracellular HMGB1 was then measured in the culture supernatant by an ELISA assay. Data are means±s.e.m. (n=3). (B) U2OS cells were left untreated or exposed to increasing concentrations of RT39 for 3 h. Extracellular ATP was then measured in the culture supernatant using an ATP-bioluminescence assay. Data are means±s.e.m. (n=3).
Release of lactate dehydrogenase (LDH) and ATP in the culture medium were assessed with the CytoTox 96 Non-Radioactive Cytotoxicity Assay and Enliten ATP Assay, respectively (Promega, Madison, WI, USA). HMGB1 release in the culture medium was assessed with the HMGB1 ELISA kit (IBL International, Hamburg, Germany).

[5] = U2OS cells, increasing concentrations of RT39, 3 h

In the case of “RQIKIWFQNRRMKWKKAKLNAEKLKDFKIRLQYFARGLQVYIRQLRLALQGKT [RT53]”, the “cellular integrity by ultrastructural analysis” value [1] is reported as “No changes in cellular integrity or ruptured cells could be detected”, the “organ toxicity (macroscopic or microscopic)” value [2] is reported as “No organ toxicity” and the “cell death by LDH release in normal cells” value [3] is reported as “no cell death was detected”.

With “RQIKIWFQNRRMKWKKLQYFARGLQVYIRQLRLALQGKT (Synthetic Fusion protein RT39) [fusion of penetratin with AAC-11 leucine-zipper derived peptide (377-399)]” the “extracellular ATP release (ATP-bioluminescence)” value [4, 5] was “triggers calreticulin exposure as well as the release of HMGB1 and ATP”, the “extracellular HMGB1 release (ELISA)” value [4, 5] was “triggers calreticulin exposure as well as the release of HMGB1 and ATP” and the calreticulin exposure ([4]; stated in figure title only, cells not given) was “triggers calreticulin exposure”.
